Laboratory results published in patent US20210023159A1, “METHOD FOR PROMOTING GROWTH OF AKKERMANSIA MUCINIPHILA USING MUSA FERMENTS” (TCI CO., LTD., priority 2019, published 2021).

System: Akkermansia muciniphila BCRC 81048 strain
Assay: Prebiotic test for A. muciniphila (single candidate prebiotics, plate count)
Type: cell-based
Conditions: 1% (w/w) candidate prebiotic in BHI medium, 48 h anaerobic incubation at 37° C.; control group = 100%
Description: The Akkermansia muciniphila used in the Examples described herein is the Akkermansia muciniphila BCRC 81048 strain purchased from BCRC at the Food Industry Research and Development Institute (also deposited under ATCC BAA-835). For subsequent use in the prebiotic test, the A. muciniphila strain, after thawed and activation, was inoculated at 3% and pre-cultured in BHI medium (15 g BD Difco Brain Heart Infusion broth (Thermo Fischer Scientific) dissolved in 1 L deionized water at a pH value of about 7.0) at 37° C. under an anaerobic condition (10% carbon dioxide, 10% hydrogen, and 80% nitrogen) for 48 hours.
In order to identify the nutrients beneficial to the growth of A. muciniphila, pre-cultured A. muciniphila was inoculated at 3% in BHI medium containing 1% (w/w) of the candidate prebiotics and incubated at 37° C. under anaerobic conditions for 48 hours. The bacterial culture was then spread on BHI agar plates and incubated for 72 hours for bacterial counting. The candidate prebiotic was selected from xylooligosaccharides, isomaltooligosaccharides, lactitol, inulin, fructooligosaccharides, and a banana ferment. For comparison, A. muciniphila was alternatively incubated in BHI medium without candidate prebiotics (control group).

Compound | relative bacterial count of A. muciniphila
OC[C@@H](O)[C@@H](O[C@@H]1O[C@H](CO)[C@H](O)[C@H](O)[C@H]1O)[C@H](O)[C@@H](O)CO [lactitol] | ~258%
inulin | about 110%
